Results published in patent US5256698A, “Treatment of psychosis using cyclohexyl-phenyl-lower alkyl amine derivatives” (University of Iowa Research Foundation, priority 1990, dated 1993).
Entries after “also recorded” stand apart in the source; their conditions may differ.

What was measured:
sigma binding sites [1] = assay: sigma binding site inhibition: displacement of radiolabelled haldol; conditions: for binding to the sigma binding site (in words): hydrochloride
Procedure: (§1) The compound prepared in Example 1 was tested for sigma binding site inhibition in comparison with Haldol, a knows selective receptor for sigma binding sites. In particular, a radioligand of haldol was bound to sigma binding sites to provide radio labeled ligands at sigma binding receptor sites of tissue. In the tests, the compound of Example 1 was then added to the cell system to see how successfully it displaced the radioactive ligands at the sigma binding site. The higher the percentage of radio ligand displaced, the greater the percentage of specific binding at the sigma sites.
The compound of Example 2 was tested in a similar fashion to that previously described in order to test comparison with Haldol or sigma binding site activity.

Dopamine 1 = Dopamine 1 binding, [^3 H]-SCH 23390; conditions: for Percent Inhibition: Average, N = 2; for Percent Binding: Table 6 (head from Table 5)
Description: (§2) Any number for a psychoactive drug over 50% is considered highly significant. By way of example, the following Table 2 illustrates a percentage of specific binding for certain known psychoactives capable of binding at other binding sites which are responsible for the undesirable side effects often associated with psychoactive agents.

Dopamine 2 = Dopamine 2 binding, [^3 H]-Sulpiride; conditions: for Percent Inhibition: Average, N = 2; for Percent Binding: Table 6 (head from Table 5)
Description: as §2

PCP = PCP site binding, [^3 H]-TCP; conditions: for Percent Inhibition / Percent Binding: [^3 H]-TCP; for Percent Inhibition: Average, N = 2; for Percent Binding: Table 6 (head from Table 5)
Description: as §2
[^3 HTCP is a PCP derivative which selectively labels PCP site; PCP i

dopaminergic receptors = assay: binding at dopaminergic receptors (summary of dopamine 1 and 2 binding)
Description: as §2

sigma binding sites [2] = conditions: background; cited from earlier work
sigma = sigma binding capability, [^3 H]-DTG; conditions: for Percent Binding: [^3 H]-DTG
Procedure: as §1, with “In particular, a radioligand of haldol was bound to sigma binding sites to provide radio labeled ligands at sigma binding receptor sites of tissue.” left out
The following table illustrates testing of sigma binding capability of bromhexine. Again, the test protocol and procedure were as previously described.

For `CCN(Cc1ccccc1)C1CCCCC1.Cl` [Example 1, N-cyclohexyl-N-ethylbenzylamine hydrochloride], which “% Displaced Haldol” value (sigma binding sites [1]; Table 1, 10^-5 M, 10 µM) is on record?
Its value is 96.0%.

And the “% Sigma Site Binding” value (sigma binding sites [1]; Table 1, 10^-5 M, 10 µM)?
The value was 4.0%.

And the “VERIFICATION % Displaced Haldol” value (sigma binding sites [1]; Table 1, 10^-5 M, 10 µM)?
Its value is 86.7%.

What about the “VERIFICATION % Sigma Site Binding” value (sigma binding sites [1]; Table 1, 10^-5 M, 10 µM) of the same molecule?
Its value is 13.3%.

What about the “% Displaced Haldol” value (sigma binding sites [1]; Table 1, 10^-7 M, 0.1 µM) of the same molecule?
The value was 99.1%.

What about the “% Sigma Site Binding” value (sigma binding sites [1]; Table 1, 10^-7 M, 0.1 µM) of the same molecule?
The value was 0.9%.

What about the “VERIFICATION % Displaced Haldol” value (sigma binding sites [1]; Table 1, 10^-7 M, 0.1 µM) of the same molecule?
Its value is 61.1%.

What about the “VERIFICATION % Sigma Site Binding” value (sigma binding sites [1]; Table 1, 10^-7 M, 0.1 µM) of the same molecule?
Its value is 38.9%.

And the “% Displaced Haldol” value (sigma binding sites [1]; Table 1, 10^-9 M, 0.001 µM)?
Its value is 27.5%.

What about the “% Sigma Site Binding” value (sigma binding sites [1]; Table 1, 10^-9 M, 0.001 µM) of the same molecule?
Its value is 72.5%.

And the “VERIFICATION % Displaced Haldol” value (sigma binding sites [1]; Table 1, 10^-9 M, 0.001 µM)?
Its value is 22.5%.

What about the “VERIFICATION % Sigma Site Binding” value (sigma binding sites [1]; Table 1, 10^-9 M, 0.001 µM) of the same molecule?
The value was 77.5%.

And the “binding to the sigma binding site (in words)” value (sigma binding sites [1])?
Its value is “selectively binds to the sigma binding site”.

And the “binding to the sigma binding site (in words)” value (sigma binding sites [1]; listed as N-cyclohexyl-N-ethyl 2-benzylamine)?
Its value is “high degree of active sigma binding capability”.

What about the “Percent Inhibition” value (Dopamine 1; 10^-5 M) of the same molecule?
The value was 10.7%.

And the “Percent Inhibition” value (Dopamine 1; 10^-7 M)?
The value was 5.9%.

And the “Percent Inhibition” value (Dopamine 1; 10^-9 M)?
Its value is 3.2%.

What about the “Percent Inhibition” value (Dopamine 2; 10^-5 M) of the same molecule?
Its value is 14.8%.

And the “Percent Inhibition” value (Dopamine 2; 10^-7 M)?
The value was -1.5%.

What about the “Percent Inhibition” value (Dopamine 2; 10^-9 M) of the same molecule?
Its value is -1.4%.

And the “Percent Inhibition” value (PCP; 10^-5 M)?
The value was 25.1%.

And the “Percent Inhibition” value (PCP; 10^-7 M)?
The value was 7.1%.

And the “Percent Inhibition” value (PCP; 10^-9 M)?
Its value is 9.4%.

And the “binding to dopaminergic sites (in words)” value (dopaminergic receptors)?
Its value is “excluded from binding at dopaminergic receptors”.

Which “% Displaced Haldol” value (sigma binding sites [1]; Table 3, 10^-5 M, 10 µM) does the source give for `CCN(CCc1ccccc1)C1CCCCC1.Cl` [Example 2, N-cyclohexyl-N-ethyl 2-phenylethylamine hydrochloride] here?
Its value is 107.6%.

And the “% Sigma Site Binding” value (sigma binding sites [1]; Table 3, 10^-5 M, 10 µM)?
The value was -7.6%.

And the “VERIFICATION % Displaced Haldol” value (sigma binding sites [1]; Table 3, 10^-5 M, 10 µM)?
The value was 91.7%.

What about the “VERIFICATION % Sigma Site Binding” value (sigma binding sites [1]; Table 3, 10^-5 M, 10 µM) of the same molecule?
The value was 8.3%.

And the “% Displaced Haldol” value (sigma binding sites [1]; Table 3, 10^-7 M, 0.1 µM)?
The value was 84.7%.

What about the “% Sigma Site Binding” value (sigma binding sites [1]; Table 3, 10^-7 M, 0.1 µM) of the same molecule?
Its value is 15.3%.

What about the “VERIFICATION % Displaced Haldol” value (sigma binding sites [1]; Table 3, 10^-7 M, 0.1 µM) of the same molecule?
Its value is 69.0%.

And the “VERIFICATION % Sigma Site Binding” value (sigma binding sites [1]; Table 3, 10^-7 M, 0.1 µM)?
Its value is 31.0%.

What about the “% Displaced Haldol” value (sigma binding sites [1]; Table 3, 10^-9 M, 0.001 µM) of the same molecule?
Its value is 43.2%.

What about the “% Sigma Site Binding” value (sigma binding sites [1]; Table 3, 10^-9 M, 0.001 µM) of the same molecule?
Its value is 56.8%.

What about the “VERIFICATION % Displaced Haldol” value (sigma binding sites [1]; Table 3, 10^-9 M, 0.001 µM) of the same molecule?
Its value is 33.9%.

And the “VERIFICATION % Sigma Site Binding” value (sigma binding sites [1]; Table 3, 10^-9 M, 0.001 µM)?
Its value is 66.1%.

And the “binding to the sigma binding site (in words)” value (sigma binding sites [1])?
The value was “binds selectively to the sigma and PCP binding sites”.

What about the “binding to the sigma binding site (in words)” value (sigma binding sites [1]; listed as N-cyclohexyl-N-ethyl 2-phenylethylamine) of the same molecule?
Its value is “high degree of active sigma binding capability”.

And the “Percent Inhibition” value (Dopamine 2; 10^-5 M)?
The value was 47.2%.

What about the “Percent Inhibition” value (Dopamine 2; 10^-7 M) of the same molecule?
The value was 7.8%.

What about the “Percent Inhibition” value (Dopamine 2; 10^-9 M) of the same molecule?
Its value is 5.9%.

What about the “binding to PCP sites (in words)” value (PCP) of the same molecule?
Its value is “binds selectively to the sigma and PCP binding sites”.

What about the “Percent Inhibition” value (PCP; 10^-5 M) of the same molecule?
Its value is 87.7%.

And the “Percent Inhibition” value (PCP; 10^-7 M)?
The value was 21.0%.

And the “Percent Inhibition” value (PCP; 10^-9 M)?
Its value is 11.1%.

And the “binding to dopaminergic sites (in words)” value (dopaminergic receptors)?
The value was “only very weakly binds to the dopaminergic site”.

Which “affinity for sigma binding sites (in words)” value (sigma binding sites [2]) does the source give for `c1ccc(C2(N3CCCCC3)CCCCC2)cc1` [PCP, phencyclidine] here?
Its value is “also bind at this site”.

For `CN(Cc1cc(Br)cc(Br)c1N)C1CCCCC1` [bromhexine, reference compound], which “Percent Binding” value (sigma; 10^-5 M, 10 µM) is on record?
The value was 90.8%.

And the “Percent Binding” value (sigma; 10^-7 M, 0.1 µM)?
Its value is 45.1%.

What about the “Percent Binding” value (sigma; 10^-9 M, 0.001 µM) of the same molecule?
Its value is 24.8%.

What about the “sigma binding capability (in words)” value (sigma; bromhexine) of the same molecule?
Its value is “bind to the sigma site; also recorded: high degree of active sigma binding capability”.

And the “Percent Binding” value (Dopamine 1; 10^-5 M, 10 µM)?
The value was 17.5%.

What about the “Percent Binding” value (Dopamine 1; 10^-7 M, 0.1 µM) of the same molecule?
The value was 10.8%.

What about the “Percent Binding” value (Dopamine 1; 10^-9 M, 0.001 µM) of the same molecule?
Its value is 3.9%.

And the “Percent Binding” value (Dopamine 2; 10^-5 M, 10 µM)?
The value was 11.9%.

What about the “Percent Binding” value (Dopamine 2; 10^-7 M, 0.1 µM) of the same molecule?
The value was 4.5%.

What about the “Percent Binding” value (Dopamine 2; 10^-9 M, 0.001 µM) of the same molecule?
The value was 5.6%.

And the “binding to PCP sites (in words)” value (PCP)?
The value was “negligible”.

What about the “Percent Binding” value (PCP; 10^-5 M, 10 µM) of the same molecule?
The value was -2.5%.

And the “Percent Binding” value (PCP; 10^-7 M, 0.1 µM)?
Its value is 0.2%.

What about the “Percent Binding” value (PCP; 10^-9 M, 0.001 µM) of the same molecule?
The value was -13.6%.

What about the “binding to dopaminergic sites (in words)” value (dopaminergic receptors) of the same molecule?
The value was “negligible”.

For `O=C(CCCN1CCC(O)(c2ccc(Cl)cc2)CC1)c1ccc(F)cc1` [haloperidol], which “affinity for sigma binding sites (in words)” value (sigma binding sites [2]) is on record?
The value was “high affinity”.
